Data from patent US4001238A, “1,3,4-Oxadiazole amides” (Bristol-Myers Company, priority 1976, dated 1977).

Tests used:
humans [1] = conditions: clinical, in words; literature; cited from earlier work
humans [2] = experiment: Clinical use as antihypertensive agent (literature); format: in vivo, human; conditions: lower end of clinical daily dosage range (trimazosin 150 to 500 mg, prazosin 1.5 to 15 mg)
Solubility in water = format: physicochemical; conditions: in words
Description: Compound I can exist in two polymorphic forms. In an earlier experiment similar to Experiment E with the exception that an excess of piperazine hydrobromide was used, a water soluble form (Isomorph A) of Compound I having a M.P. of 224°-228° C. was obtained. This product was recrystallized from nitromethane to give an analytical sample of Isomorph A having a M.P. of 227°-229° C.
A 200 mg. sample of Isomorph A was dissolved in 10 ml. of water at 20° C. The solution was heated at 60° C. for 3 minutes, then cooled to 35° C. and filtered. […] This product was termed Isomorph B of Compound I.

[3] = system: spontaneous hypertensive rats; experiment: Antihypertensive activity, oral administration to spontaneous hypertensive rats; format: in vivo, rat; conditions: for ED50: Rattus norvegicus, read-out: Antihypertensive Activity ED50 mm Hg
Description: (§1) In Table 1, antihypertensive activity was determined by oral administration to spontaneous hypertensive rats, and the in vitro and in vivo α-adrenergic receptor blocking effect was determined by tests described following Table 1.

α-adrenergic receptor [4] = biological target: T1, α-adrenergic receptor (Rattus norvegicus, UniProt P43140); experiment: Isolated rat seminal vesicle assay (inhibition of norepinephrine induced contractions; α-adrenergic receptor blocking effect in vitro); conditions: for decrease in the sensitivity of isolated rat seminal vesicles to the stimulant activity of NE: 10 nanograms/ml; for NE ED50 with 95% Conf. Limits: NE ED50 in presence of test compound 10 nano/ml, control 0.89 (0.84-0.94)
T1 construct: Seminal vesicles were removed and transfered to a shallow dish containing modified Tyrode's solution; from tissue; host or cells: isolated seminal vesicle of male Long Evans rats
T1 sequence (P43140 1-466): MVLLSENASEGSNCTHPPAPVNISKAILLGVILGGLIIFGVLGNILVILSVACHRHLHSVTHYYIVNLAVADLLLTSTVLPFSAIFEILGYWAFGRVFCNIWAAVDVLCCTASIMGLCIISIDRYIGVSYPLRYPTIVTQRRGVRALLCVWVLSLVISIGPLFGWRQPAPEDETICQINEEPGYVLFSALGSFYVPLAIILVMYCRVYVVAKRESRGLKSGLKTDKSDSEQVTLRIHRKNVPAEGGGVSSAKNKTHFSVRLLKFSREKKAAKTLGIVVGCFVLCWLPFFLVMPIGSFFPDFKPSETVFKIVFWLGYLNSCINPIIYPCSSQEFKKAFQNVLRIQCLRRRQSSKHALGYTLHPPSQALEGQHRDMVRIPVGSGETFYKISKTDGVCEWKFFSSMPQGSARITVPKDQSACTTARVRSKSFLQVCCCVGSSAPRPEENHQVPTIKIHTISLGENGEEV
Description: as §1, with “1. In the in vitro test, the inhibition by BL-5111 of norepinephrine induced contractions of rat seminal vesicles was measured; and in the in vivo test, the inhibition by BL-5111 of norepinephrine induced pressor responses in anesthetized dogs was measured.” for “1.”
Dangan et al, Int. […] Lietch et al, Brit.
Male Long Evans rats weighing approximately 300 g. were sacrificed by a sharp blow on the head. Seminal vesicles were removed and transfered to a shallow dish containing modified Tyrode's solution. The vesicles were emptied of their contents by squeezing them gently with a pair of forceps. Silk thread (4-0) was attached to both ends of the vesicle and it was suspended in a 20 ml. muscle chamber containing modified oxygenated Tyrode's solution (g./liter: NaCl 8, KCl 0.2, CaCl2 0.26, NaHCO3 1, Na2 HPO4 0.0575, glucose 0.5 and MgCl2 0.02). The bathing fluid was maintained at 37° C. with a thermostatically controlled isolated organ tissue bath. Contractions were recorded isometrically by means of a force displacement transducer and recordings were made with a Beckman RP Dynograph. Norepinephrine (NE) was added to the muscle chamber in volumes ranging from 0.1 to 0.4 ml. with a one ml. syringe attached to a 3 inch 20 gauge needle. NE and test compounds were dissolved in deionized water.
NE dose response curves were obtained alone and in the presence of test compounds. NE was allowed to remain in contact with the strip until a maximal contraction was obtained. The strip was then washed with the perfusion fluid for 15-30 seconds and the preparation was allowed to return to base line before a subsequent dose of NE was given. Increasing amounts of NE were injected into the bath in the same manner until a complete dose response was obtained.
The seminal vesicles used to obtain the control NE dose response were discarded and new preparations were placed in the tissue bath for evaluation of the test compound. The test compound was added directly to the perfusion fluid (10 nanograms/ml.) and the strips were allowed to remain in contact with the bathing media for at least 10 minutes before the NE dose response was determined.
ED50 values for NE were obtained by regression analysis as described by Finney, Probit. Analysis, 2d Ed., Cambridge (1964). A minimum of 4 strips and at least 4 doses were employed to calculate the regression lines. The ED50 value is defined as the concentration of NE which produces a contraction equal to 50% of the maximal contraction.

α-adrenergic receptor [5] = conditions: in words; literature; cited from earlier work
vascular smooth muscle = conditions: in words; literature; cited from earlier work
α-adrenergic receptor [6] = experiment: Anesthetized dog assay for α-adrenergic blocking agents (inhibition of norepinephrine induced pressor responses); format: in vivo
Description: as §1, with “1. In the in vitro test, the inhibition by BL-5111 of norepinephrine induced contractions of rat seminal vesicles was measured; and in the in vivo test, the inhibition by BL-5111 of norepinephrine induced pressor responses in anesthetized dogs was measured.” for “1.”
Nash, C. B., Pharmacological Research Communications, 4:423, (1969) and Maxwell, R. A., Drill's Pharmacology in Medicine, (1971) p. 683 have shown that in anesthetized dogs α-adrenergic blocking agents antagonize the blood pressure elevating effects of intravenous norepinephrine. Thus, blood pressure responses to norepinephrine (NE) in anesthetized dogs was used as a comparative assay for α-adrenergic receptor blocking properties of drugs.
Experiments were done on mongrel dogs anesthetized with sodium pentobarbital, 30 mg./kg. iv. The left femoral artery was cannulated to record aortic blood pressure and a femoral vein was cannulated for administration of drugs. All animals underwent a bilateral vagotomy. A norepinephrine dose-response curve was obtained by administering increasing doses of iv. norepinephrine (0.01 - 1 μg/kg). […] Approximately 30 minutes later a dose-response curve was again established for iv. norepinephrine (0.01-10 μg/kg).

in vivo = conditions: mouse, IV, mice
[7] = 1 mg/kg, oral, spontaneous hypertensive rats
[8] = 3 mg/kg, oral, spontaneous hypertensive rats
[9] = 10 mg/kg, oral, spontaneous hypertensive rats
[10] = oral, spontaneous hypertensive rats
[11] = 10 nano/ml, isolated rat seminal vesicles

Row | solubility in water (Solubility in water) | Structure (SMILES) | % Blood Pressure Change [3, 7] [%] | % Blood Pressure Change [3, 8] [%] | % Blood Pressure Change [3, 9] [%] | ED50 [3, 10] [mg/kg] | Percent Change From Control (NE ED50) (α-adrenergic receptor [4]; [11]) [%] | decrease in the sensitivity of isolated rat seminal vesicles to the stimulant activity of NE (α-adrenergic receptor [4]; in words) | NE ED50 with 95% Conf. Limits (α-adrenergic receptor [4]; isolated rat seminal vesicles) | also measured
1 | – | COc1cc2c(N)nc(N3CCN(C(=O)OCC(C)(C)O)CC3)nc2c(OC)c1OC [Trimazosin] | – | – | – | – | – | – | – | activity in humans as an antihypertensive agent (humans [1]): active in humans as an antihypertensive agent; potency relative to prazosin (fold weaker) (humans [2]): 100 fold
2 | would not redissolve in boiling water | COc1cc2nc(N3CCNCC3)nc(N)c2cc1OC [Isomorph B, 4-amino-6,7-dimethoxy-2-(1-piperazinyl)quinazoline] | – | – | – | – | – | – | – | –
3 | – | COc1cc2nc(N3CCN(C(=O)c4ccco4)CC3)nc(N)c2cc1OC [Prazosin, 2-[4-(2-furoyl)-piperazin-1-yl]-4-amino-6,7-dimethoxyquinazoline, reference compound] | -14 | -29 | -42 | 2.1 | 578 | nearly a six fold decrease | 6.03 (5.30-6.81) μg/ml | peripheral α-adrenergic receptor blockade (α-adrenergic receptor [5]): functional peripheral α-adrenergic receptor blockade; vasodilation effect on vascular smooth muscle (vascular smooth muscle): direct peripheral vasodilation effect on vascular smooth muscle
4 | – | COc1cc2nc(N3CCN(C(=O)c4nnc(SC)o4)CC3)nc(N)c2cc1OC.Cl [BL-5111, 4-Amino-6,7-dimethoxy-2-[4-(5-methylthio-1,3,4-oxadiazole-2-carbonyl)-piperazin-1-yl]-quinazoline hydrochloride] | -19 | -26 | -41 | 2.3 | 4.5 | essentially inactive | 0.93 (0.80-1.08) μg/ml | times less active than prazosin in causing α-adrenergic blockade (α-adrenergic receptor [6]; 3 mg/kg iv, anesthetized dogs): approximately 30 times; α-Adrenergic Receptor Blocking Effect, In Vivo Activity Ratio (α-adrenergic receptor [6]; Table 1, relative to prazosin, intravenous, anesthetized dogs): 0.04; Activity Ratio Relative to Prazosin (α-adrenergic receptor [6]; Table III, 3 mg/kg iv, anesthetized dogs): 0.036; peripheral α-adrenergic blocking properties (α-adrenergic receptor [6]; in words, in vitro and in vivo tests together (Table 1)): little or none of the peripheral α-adrenergic blocking properties shown by prazosin; antihypertensive potency compared to prazosin ([3]; in words): comparable antihypertensive potency to prazosin; Antihypertensive Activity Ratio ([3]; relative to prazosin, oral, spontaneous hypertensive rats): 0.91; Activity Ratio Relative to Prazosin (α-adrenergic receptor [4]; Table II, 10 nano/ml, isolated rat seminal vesicles): 0.008; α-adrenergic blocking activity relative to prazosin (α-adrenergic receptor [4]; conclusion from isolated rat seminal vesicles, in words): less than one percent; LD50 (in vivo): 45.7 mg/kg
5 | water soluble | COc1cc2nc(N3CCNCC3)nc(N)c2cc1OC [Isomorph A, 4-amino-6,7-dimethoxy-2-(1-piperazinyl)quinazoline] | – | – | – | – | – | – | – | –
